We go through one compound from ChEMBL document CHEMBL4680065, “Pharmacophore-based screening of diamidine small molecule inhibitors for protein arginine methyltransferases” (RSC Med Chem, 2021).

SMILES strings stand for the structures.

The target of this experiment is T1, Histone-arginine methyltransferase CARM1 (Homo sapiens) (UniProt Q86X55).
T1 sequence (whole entry): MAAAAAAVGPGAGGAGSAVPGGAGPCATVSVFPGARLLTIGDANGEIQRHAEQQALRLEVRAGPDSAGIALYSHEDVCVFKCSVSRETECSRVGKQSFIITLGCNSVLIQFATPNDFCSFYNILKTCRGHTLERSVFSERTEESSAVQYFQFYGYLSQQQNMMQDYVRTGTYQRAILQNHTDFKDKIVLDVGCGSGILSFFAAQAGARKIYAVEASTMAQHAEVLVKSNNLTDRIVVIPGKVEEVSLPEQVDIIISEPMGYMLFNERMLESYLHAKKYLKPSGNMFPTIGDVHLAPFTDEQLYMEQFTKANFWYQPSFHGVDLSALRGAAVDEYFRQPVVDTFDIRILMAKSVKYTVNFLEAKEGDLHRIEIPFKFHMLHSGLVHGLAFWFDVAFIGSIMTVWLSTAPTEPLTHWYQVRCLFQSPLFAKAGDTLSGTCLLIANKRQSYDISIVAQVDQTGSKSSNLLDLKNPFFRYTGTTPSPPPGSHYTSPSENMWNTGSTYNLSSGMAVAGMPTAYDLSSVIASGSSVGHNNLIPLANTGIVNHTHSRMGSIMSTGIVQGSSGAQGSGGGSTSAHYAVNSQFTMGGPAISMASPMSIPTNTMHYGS
The experiment is described as follows: Inhibition of recombinant GST-tagged CARM1 (unknown origin) expressed in Escherichia coli assessed as residual activity at 10 uM using histone H3.3 peptide as substrate incubated for 120 mins in presence of [3H]-SAM cofactor by radioactive filter plate assay relative to control.

As for `N=C(N)c1ccc(Nc2ccc(-c3cc4ccc(C(=N)N)cc4[nH]3)cc2)cc1`, the Activity was found to be 50.7%.
